# According to patent publication US20240199605A1, “SMALL MOLECULAR INHIBITORS OF NF-kB INDUCING KINASE” (Janssen Pharmaceutica NV, priority 2019, published 2024):
# Where two headings read alike, the source gives them in different places.
# Legend:
# [1] = tested on: p-IKKα levels in L363 (NIK translocated multiple myeloma) cells; assay: Effect of compounds on p-IKKα levels in L363 cells (AlphaLISA SureFire Ultra); type: cell-based, human; conditions: BAFF stimulated, MG132, 6 h, average of values, read-out: Assay 2 IC50
# In short: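 Inhibition of p-IKKα (Ser176/180) read by AlphaLISA after 6 h, 37 °C compound exposure (11-point 1:3 series, 0.3% DMSO) of L363 cells pre-incubated overnight ± 250 ng/ml BAFF and plated ± BAFF ± 10 μM MG132. Normalised to BAFF/MG132/DMSO and unstimulated controls; IC50 by sigmoidal fitting, duplicates.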
# [2] = molecular target: recombinant human NF-kappaB-inducing kinase (NIK/MAP3K14) (Homo sapiens (Human), UniProt Q99558); assay: Inhibition of auto-phosphorylation of recombinant human NIK/MAP3K14 (AlphaScreen); type: biochemical; conditions: NIK auto-phosphorylation, 5 μM ATP, 1 nM NIK, 2 h at 25° C.; average of values
# Sequence of recombinant human NF-kappaB-inducing kinase (NIK/MAP3K14) (Q99558 whole entry): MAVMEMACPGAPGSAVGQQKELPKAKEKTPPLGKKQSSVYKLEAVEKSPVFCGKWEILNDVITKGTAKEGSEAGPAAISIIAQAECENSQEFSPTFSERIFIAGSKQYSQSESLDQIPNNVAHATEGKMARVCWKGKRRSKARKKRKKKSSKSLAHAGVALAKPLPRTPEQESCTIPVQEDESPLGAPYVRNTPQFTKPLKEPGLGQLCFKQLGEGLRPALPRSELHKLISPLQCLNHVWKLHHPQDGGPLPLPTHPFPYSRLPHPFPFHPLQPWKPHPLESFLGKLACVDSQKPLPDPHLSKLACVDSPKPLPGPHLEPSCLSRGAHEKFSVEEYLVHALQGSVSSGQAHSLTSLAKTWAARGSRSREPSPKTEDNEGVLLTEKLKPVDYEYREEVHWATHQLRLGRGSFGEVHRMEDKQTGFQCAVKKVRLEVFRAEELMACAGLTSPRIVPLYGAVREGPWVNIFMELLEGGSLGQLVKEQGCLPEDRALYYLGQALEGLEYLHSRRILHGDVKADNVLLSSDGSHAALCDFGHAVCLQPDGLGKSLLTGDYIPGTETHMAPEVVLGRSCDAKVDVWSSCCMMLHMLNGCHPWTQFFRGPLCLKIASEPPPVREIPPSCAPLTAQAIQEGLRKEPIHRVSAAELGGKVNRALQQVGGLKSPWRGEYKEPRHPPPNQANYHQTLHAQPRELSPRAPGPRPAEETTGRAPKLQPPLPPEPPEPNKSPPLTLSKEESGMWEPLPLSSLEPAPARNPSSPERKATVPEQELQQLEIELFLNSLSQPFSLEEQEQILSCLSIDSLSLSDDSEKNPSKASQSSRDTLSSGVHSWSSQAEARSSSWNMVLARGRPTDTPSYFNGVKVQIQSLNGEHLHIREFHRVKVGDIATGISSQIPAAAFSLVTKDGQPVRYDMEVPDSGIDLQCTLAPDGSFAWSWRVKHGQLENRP
# In short: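 AlphaScreen read-out (anti-phospho-IKK Ser176/180 antibody, Protein A acceptor and glutathione donor beads) of NIK auto-phosphorylation. Reaction: 1 nM enzyme, 5 μM ATP, Tris pH 7.5 buffer with Mg2+ and vanadate, 2 h at 25° C., final DMSO 0.7%. IC50 came from a sigmoidal curve fit.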
SMILES,"IC50 ([1]; Homo sapiens, L-363, 6 h)",IC50 [2],IC50 [1]
"Cc1ccc(C#C[C@]2(O)CCN(C)C2=O)cc1-c1nc(C)c2ncnc(N)c2n1 [Example 301, (R)-3-[2-[3-(8-Amino-4-methyl-pyrimido[5,4-d]pyrimidin-2-yl)-4-methyl-phenyl]ethynyl]-3-hydroxy-1-methyl-pyrrolidin-2-one]",48 nM,4.5 nM,–
"CN1CC[C@@](O)(C#Cc2cccc(-c3cc(C4CC4)c4ncnc(N)c4n3)c2)C1=O [Example 302, (R)-3-((3-(4-Amino-8-cyclopropylpyrido[3,2-d]pyrimidin-6-yl)phenyl)ethynyl)-3-hydroxy-1-methylpyrrolidin-2-one]",4.5 nM,≤ 0.5 nM,–
"CN1CC[C@@](O)(C#Cc2cccc(-c3cc(-n4cccn4)c4ncnc(N)c4n3)c2)C1=O [Example 303, (R)-3-[2-[3-(4-Amino-8-pyrazol-1-yl-pyrido[3,2-d]pyrimidin-6-yl)phenyl]ethynyl]-3-hydroxy-1-methyl-pyrrolidin-2-one]",11 nM,0.9 nM,–
"CN1CC[C@@](O)(C#Cc2cccc(-c3cc(OC4CC4)c4ncnc(N)c4n3)c2)C1=O [Example 304, (R)-3-[2-[3-[4-Amino-8-(cyclopropoxy)pyrido[3,2-d]pyrimidin-6-yl]phenyl]ethynyl]-3-hydroxy-1-methyl-pyrrolidin-2-one]",15 nM,0.6 nM,–
"CN1CC[C@@](O)(C#Cc2cccc(-c3cc(Oc4cnn(C(F)F)c4)c4ncnc(N)c4n3)c2)C1=O [Example 305, (R)-3-[2-[3-[4-Amino-8-[1-(difluoromethyl)pyrazol-4-yl]oxy-pyrido[3,2-d]pyrimidin-6-yl]phenyl]ethynyl]-3-hydroxy-1-methyl-pyrrolidin-2-one]",64 nM,2.2 nM,–
"CN1CC[C@@](O)(C#Cc2cccc(-c3cc(OCCC(F)(F)F)c4ncnc(N)c4n3)c2)C1=O [Example 306, (R)-3-[2-[3-[4-Amino-8-(3,3,3-trifluoropropoxy)pyrido[3,2-d]pyrimidin-6-yl]phenyl]ethynyl]-3-hydroxy-1-methyl-pyrrolidin-2-one]",26 nM,1.9 nM,–
"CN1CC[C@@](O)(C#Cc2cccc(-c3cc(N4CC5(C4)CC5(F)F)c4ncnc(N)c4n3)c2)C1=O [Example 307, (R)-3-[2-[3-[4-Amino-8-(2,2-difluoro-5-azaspiro[2.3]hexan-5-yl)pyrido[3,2-d]pyrimidin-6-yl]phenyl]ethynyl]-3-hydroxy-1-methyl-pyrrolidin-2-one]",40 nM,1.6 nM,–
"[2H]c1nc(N)c2nc(-c3cccc(C#C[C@]4(O)CCN(C)C4=O)c3)cc(CC)c2n1 [Example 308, (R)-3-((3-(4-Amino-8-ethylpyrido[3,2-d]pyrimidin-6-yl-2-d)phenyl)ethynyl)-3-hydroxy-1-methylpyrrolidin-2-one]",190 nM,6.8 nM,–
"CN1CC[C@@](O)(C#Cc2cccc(-c3cc(C4CCC4)c4ncnc(N)c4n3)c2)C1=O [Example 309, (R)-3-((3-(4-Amino-8-cyclobutylpyrido[3,2-d]pyrimidin-6-yl)phenyl)ethynyl)-3-hydroxy-1-methylpyrrolidin-2-one]",9.7 nM,≤ 0.5 nM,–
"CN1CC[C@@](O)(C#Cc2cccc(-c3cc(-c4ccccc4)c4ncnc(N)c4n3)c2)C1=O [Example 310, (R)-3-((3-(4-Amino-8-phenylpyrido[3,2-d]pyrimidin-6-yl)phenyl)ethynyl)-3-hydroxy-1-methylpyrrolidin-2-one]",13 nM,0.7 nM,–
"CN1CC[C@@](O)(C#Cc2cccc(-c3cc(-c4cccs4)c4ncnc(N)c4n3)c2)C1=O [Example 311, (R)-3-((3-(4-Amino-8-(thiophen-2-yl)pyrido[3,2-d]pyrimidin-6-yl)phenyl)ethynyl)-3-hydroxy-1-methylpyrrolidin-2-one]",3.6 nM,≤ 0.5 nM,–
"CN1CC[C@@](O)(C#Cc2cccc(-c3cc(-c4ccco4)c4ncnc(N)c4n3)c2)C1=O [Example 312, (R)-3-((3-(4-Amino-8-(furan-2-yl)pyrido[3,2-d]pyrimidin-6-yl)phenyl)ethynyl)-3-hydroxy-1-methylpyrrolidin-2-one]",11 nM,0.8 nM,–
"CN1CC[C@@](O)(C#Cc2cccc(-c3cc(C4CCN4)c4ncnc(N)c4n3)c2)C1=O (stereo partly drawn) [Example 313, (3R)-3-((3-(4-Amino-8-(azetidin-2-yl)pyrido[3,2-d]pyrimidin-6-yl-2-d)phenyl)ethynyl)-3-hydroxy-1-methylpyrrolidin-2-one]",–,3.1 nM,231 nM
"C=Cc1cc(-c2cccc(C#C[C@]3(O)CCN(C)C3=O)c2)nc2c(N)ncnc12 [Example 314, (R)-3-((3-(4-Amino-8-vinylpyrido[3,2-d]pyrimidin-6-yl)phenyl)ethynyl)-3-hydroxy-1-methylpyrrolidin-2-one]",14 nM,2.9 nM,–
"CN1CC[C@@](O)(C#Cc2cccc(-c3cc(N4CCC4)c4ncnc(N)c4n3)c2)C1=O [Example 316, (R)-3-[2-[3-[4-Amino-8-(azetidin-1-yl)pyrido[3,2-d]pyrimidin-6-yl]phenyl]ethynyl]-3-hydroxy-1-methyl-pyrrolidin-2-one]",9.5 nM,0.9 nM,–
